According to patent US20260226048A1, “MULTI-CYCLIC IRAK AND FLT3 INHIBITING COMPOUNDS AND USES THEREOF” (CHILDREN'S HOSPITAL MEDICAL CENTER, priority 2023, published 2026):
Like-named read-outs stand apart in the source and are kept apart here.

What was measured:
[1] = target: T1, IRAK1 (Homo sapiens, UniProt P51617); experiment: RBC HotSpot Kinase Assay, IRAK1; assay type: biochemical; details: isolated kinase enzyme, 33P-ATP, P81 filter-binding
T1 construct: purchased Reaction Biology (RBC HotSpot)
Method in brief: (§1)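 Reactions ran in 20 mM Hepes (pH 7.5) containing 10 mM MgCl2, 1 mM EGTA, 0.1 mM Na3VO4, 2 mM DTT, 0.02 mg/ml BSA, 0.01% Brij35 and 1% DMSO, plus required cofactors. Functional activity readout on the expressible enzyme form, sometimes C-terminally truncated or lacking receptor regulatory regions.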

[2] = test system: MOLM14 D835Y cells; experiment: MOLM14 D835Y cell viability assay (Cell Titer Glo); assay type: cell-based; details: cell viability, Cell Titer Glo, 48 hours, read-out: MOLM14 D835Y IC50
Method in brief: (§2)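 Luminescent ATP read-out (CellTiter-Glo, 15 min room temperature) taken 48 h after compound addition. Cells were MOLM14 carrying FLT3 D835Y or F691L mutations, plated at 1000 cells per well.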

[3] = test system: THP1 cells (FLT3 WT); experiment: Combination drug screening with venetoclax in THP1 cells (Cell Titre Glo, 10 × 10); assay type: cell-based; details: for Excess HSA (sum excess HSA score, combination with venetoclax): 10 × 10 dataset, Cell Titre Glo at 48 hours, optimal of 4 dose combinations, negative = synergy; for Concentration needed to decrease the 312.5 nM Venetoclax response to <20%: Cell Titer Glo at 48 hours
Description: (§3) These assays were performed using the Cell Titre Glo assay, measured at 48 hours.
(§4) A smaller concentration indicates higher potency to synergize with Venetoclax.

[4] = test system: MOLM14-D835Y cells (FLT3-ITD (D835Y) mutant); experiment: Combination drug screening with venetoclax in MOLM14 (D835Y) cells (Cell Titre Glo, 10 × 10); assay type: cell-based; parameters: Excess HSA (sum excess HSA score, combination with venetoclax): scale not given here; details: for Excess HSA (sum excess HSA score, combination with venetoclax): 10 × 10 dataset, Cell Titre Glo at 48 hours, optimal of 4 dose combinations, negative = synergy; for Concentration of a compound of the disclosure, or gilteritinib, needed to decrease the 62.5 nM Ven response to <10% in MOLM14(D835Y) cells: combination with 62.5 nM Venetoclax, Cell Titer Glo, 48 hours, response <10%
Description: as §3, §4

[5] = target: T2, IRAK4 (Homo sapiens, UniProt Q9NWZ3); experiment: RBC HotSpot Kinase Assay, IRAK4; assay type: biochemical; parameters: purchased Reaction Biology (RBC HotSpot); details: isolated kinase enzyme, 33P-ATP, P81 filter-binding
T2 sequence (Q9NWZ3 1-460): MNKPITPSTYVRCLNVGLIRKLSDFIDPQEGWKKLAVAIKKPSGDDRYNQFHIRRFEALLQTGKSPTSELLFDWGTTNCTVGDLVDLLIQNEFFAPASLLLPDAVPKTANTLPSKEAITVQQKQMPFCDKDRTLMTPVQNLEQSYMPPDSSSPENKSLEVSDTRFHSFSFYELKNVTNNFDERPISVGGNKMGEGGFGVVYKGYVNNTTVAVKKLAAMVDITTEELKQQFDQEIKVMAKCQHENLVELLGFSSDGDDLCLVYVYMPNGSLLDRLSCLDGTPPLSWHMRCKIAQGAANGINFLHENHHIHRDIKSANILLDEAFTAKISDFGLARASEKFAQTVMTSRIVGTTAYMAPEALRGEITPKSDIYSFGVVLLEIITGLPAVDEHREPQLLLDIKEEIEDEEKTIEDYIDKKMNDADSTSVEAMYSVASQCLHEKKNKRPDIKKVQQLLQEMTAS
Method in brief: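 Radiometric filter-binding activity assay with isolated recombinant kinase (construct may be truncated or catalytic domain only) in 20 mM Hepes pH 7.5, 10 mM MgCl2, 1 mM EGTA, 2 mM DTT, 1% DMSO. Compound preincubated 20 min with kinase/substrate; reaction started with 33P-ATP, run 2 h at room temperature.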

[6] = target: T3, FLT3 (Homo sapiens, UniProt P36888); experiment: RBC HotSpot Kinase Assay, FLT3; assay type: biochemical; parameters: purchased Reaction Biology (RBC HotSpot); details: isolated kinase enzyme, 33P-ATP, P81 filter-binding
T3 sequence (P36888 27-993): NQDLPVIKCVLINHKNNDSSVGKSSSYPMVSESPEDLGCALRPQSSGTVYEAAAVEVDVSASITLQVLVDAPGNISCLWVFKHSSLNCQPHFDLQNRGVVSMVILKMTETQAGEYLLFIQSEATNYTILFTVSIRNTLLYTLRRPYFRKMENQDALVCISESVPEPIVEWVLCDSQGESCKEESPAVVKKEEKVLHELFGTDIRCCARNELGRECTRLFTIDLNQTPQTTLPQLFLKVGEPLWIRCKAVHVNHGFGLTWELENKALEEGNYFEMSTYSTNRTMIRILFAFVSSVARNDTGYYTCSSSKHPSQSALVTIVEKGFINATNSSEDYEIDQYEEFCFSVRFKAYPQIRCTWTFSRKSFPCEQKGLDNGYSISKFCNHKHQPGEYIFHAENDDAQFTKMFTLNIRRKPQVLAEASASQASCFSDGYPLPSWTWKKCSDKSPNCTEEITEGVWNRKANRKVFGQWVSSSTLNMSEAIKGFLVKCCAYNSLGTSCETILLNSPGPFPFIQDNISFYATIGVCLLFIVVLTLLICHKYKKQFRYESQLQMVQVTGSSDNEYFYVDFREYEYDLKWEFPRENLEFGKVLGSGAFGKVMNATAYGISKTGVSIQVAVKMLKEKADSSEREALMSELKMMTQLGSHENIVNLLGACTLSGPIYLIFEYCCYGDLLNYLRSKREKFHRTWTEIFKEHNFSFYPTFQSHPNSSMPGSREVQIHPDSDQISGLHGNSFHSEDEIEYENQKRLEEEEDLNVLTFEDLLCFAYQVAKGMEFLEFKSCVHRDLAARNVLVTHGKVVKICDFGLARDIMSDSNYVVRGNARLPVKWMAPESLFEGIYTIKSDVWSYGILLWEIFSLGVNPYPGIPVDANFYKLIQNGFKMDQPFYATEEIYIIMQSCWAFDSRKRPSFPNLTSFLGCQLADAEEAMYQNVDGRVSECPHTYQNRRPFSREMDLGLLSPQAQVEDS
Method in brief: as §1

[7] = test system: MOLM14 F691L cells; experiment: MOLM14 F691L cell viability assay (Cell Titer Glo); assay type: cell-based; details: Homo sapiens, MOLM-14; cell viability, Cell Titer Glo, 48 hours; read-out: MOLM14 F691L IC50
Method in brief: as §2

[8] = test system: NF-κB-inducible SEAP reporter in THP-1-Blue NF-κB cells; experiment: NF-kB SEAP reporter assay in THP-1-Blue NF-κB cells; assay type: cell-based; details: 24 hours
Description: THP-1-Blue NF-κB cells (InvivoGen) carrying a stable integrated NF-κB-inducible secreted embryonic alkaline phosphatase (SEAP) reporter construct were plated at a concentration of 1×10^5 cells per well. The cells were stimulated with Pam3CSK4 (1 ng/mL) or hIL1B (1 ng/mL). After 10-20 minutes, the cells were then treated with vehicle (DMSO) or serial dilutions of the test compounds (10 doses tested for each test compound, with a 1:10 dilution series starting at 1 μM or 3 μM) with a final volume of 200 μL for 24 hours at 37° C. After 24 hours, the cells were centrifuged and 20 μL supernatant was incubated with 180 μL QUANTI-Blue reagent at 37° C. for 30-60 minutes. The levels of NF-κB-induced was measured in a microplate reader at 620 nm.

T1 sequence (P51617 whole entry): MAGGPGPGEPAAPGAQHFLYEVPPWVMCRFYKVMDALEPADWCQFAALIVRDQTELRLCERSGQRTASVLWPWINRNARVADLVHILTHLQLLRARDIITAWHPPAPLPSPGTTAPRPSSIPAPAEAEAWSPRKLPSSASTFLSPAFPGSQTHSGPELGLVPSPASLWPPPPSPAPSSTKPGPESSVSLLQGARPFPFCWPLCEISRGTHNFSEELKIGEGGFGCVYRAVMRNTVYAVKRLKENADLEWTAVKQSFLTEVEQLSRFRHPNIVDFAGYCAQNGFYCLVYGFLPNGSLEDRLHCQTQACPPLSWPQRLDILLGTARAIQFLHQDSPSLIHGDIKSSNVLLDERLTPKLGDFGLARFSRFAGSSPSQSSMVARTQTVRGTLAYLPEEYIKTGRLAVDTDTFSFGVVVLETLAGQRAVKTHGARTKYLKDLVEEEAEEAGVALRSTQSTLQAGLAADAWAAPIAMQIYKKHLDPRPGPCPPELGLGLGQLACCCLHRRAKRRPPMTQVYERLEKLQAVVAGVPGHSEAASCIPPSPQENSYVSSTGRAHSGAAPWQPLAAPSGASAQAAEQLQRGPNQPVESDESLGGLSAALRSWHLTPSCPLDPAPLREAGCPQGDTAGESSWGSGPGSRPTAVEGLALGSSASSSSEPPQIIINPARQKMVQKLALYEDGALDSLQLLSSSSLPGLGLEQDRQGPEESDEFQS

Row | SMILES | IC50 [1] [nM] | IC50 [2] [nM] | Excess HSA (sum excess HSA score, combination with venetoclax) [3] | Concentration needed to decrease the 312.5 nM Venetoclax response to <20% [3] [µM] | Excess HSA (sum excess HSA score, combination with venetoclax) [4] | Concentration of a compound of the disclosure, or gilteritinib, needed to decrease the 62.5 nM Ven response to <10% in MOLM14(D835Y) cells [4] [nM] | IC50 [5] [nM] | IC50 [6] [nM] | IC50 ([2]; Homo sapiens, MOLM-14, 48 h) [nM] | IC50 [7] [nM] | IC50 ([8]; THP-1-Blue NF-κB cells stimulated with Pam3CSK4 (1 ng/mL), read-out: NF-κB Pam3SCK4 IC50) [nM] | IC50 ([8]; THP-1-Blue NF-κB cells stimulated with hIL1B (1 ng/mL), read-out: NF-κB IL1B IC50) [nM]
1 | CC(O)(c1ccc2ncc(-c3nc(N[C@H]4CNCC[C@@H]4F)ncc3F)n2c1)C(F)(F)F (single isomer, unassigned) [Compound 35a] | 0.9 | 26 | −937.7 | 1.25 | −1543 | 25 | 0.7 | < 0.5 | – | – | – | –
2 | COc1cc2ncc(-c3nc(N[C@H]4CNCC[C@@H]4F)ncc3F)n2nc1C1CCC1 [Compound 54a, 4-(6-cyclobutyl-7-methoxyimidazo[1,2-b]pyridazin-3-yl)-5-fluoro-N-((3S,4S)-4-fluoropiperidin-3-yl)pyrimidin-2-amine] | < 0.5 | – | −807.2 | 5 | −1490 | 1.6 | < 0.5 | < 0.5 | 1 | 7 | – | –
3 | COc1cc2ncc(-c3nc(N[C@H]4CNCC[C@@H]4F)ncc3F)n2nc1C1CC(C)(C)C1 [Compound 57a, 4-(6-(3,3-dimethylcyclobutyl)-7-methoxyimidazo[1,2-b]pyridazin-3-yl)-5-fluoro-N-((3S,4S)-4-fluoropiperidin-3-yl)pyrimidin-2-amine] | 2 | – | −1308.2250 | – | −1762 | – | 1 | – | 11 | 90 | 157 | 167
4 | COc1cc2ncc(-c3ccnc(N[C@H]4CNCC[C@@H]4F)n3)n2nc1C1CC2(CCC2)C1 [Compound 74a, N-((3S,4S)-4-fluoropiperidin-3-yl)-4-(7-methoxy-6-(spiro[3.3]heptan-2-yl)imidazo[1,2-b]pyridazin-3-yl)pyrimidin-2-amine] | 91 | – | −456.1 | 5 | −1335 | 312 | 26 | < 0.5 | 80 | 1000 | – | –
5 | COc1cc2ncc(-c3ccnc(N[C@H]4CNCC[C@@H]4F)n3)n2nc1C1CC(C)(C)C1 [Compound 82a, 4-(6-(3,3-dimethylcyclobutyl)-7-methoxyimidazo[1,2-b]pyridazin-3-yl)-N-((3S,4S)-4-fluoropiperidin-3-yl)pyrimidin-2-amine] | 174 | – | −1292.2960 | 5 | −1679 | 39 | 45 | < 0.5 | 127 | 1130 | – | –
